Reference: patent US20130137772A1, “HYDROXYPOLYAMINE SALTS” (priority 2011, published 2013)
“And” between values parts separate entries of the source, which are not always exact repeats. Equal values may be shown once.

Experiment: Tissue distribution and metabolism: polyamine content of kidney, liver and pancreas via HPLC
Format: in vivo, Female CD-1 mice
Protocol: The tissue distribution and metabolism of DEHSPM, (HO)2DEHSPM HCl Salt and (HO)2DEHSPM Mesylate Salt in various organs were evaluated utilizing the following protocol:
Tissue Distribution and Metabolism of DEHSPM, (HO)2DEHSPM HCl Salt and (HO)2DEHSPM Mesylate Salt
• 1) DEHSPM, (HO)2DEHSPM HCl salt, and (HO)2DEHSPM mesylate salt were dissolved in sterile normal saline; the pH was not adjusted. • 2) Female CD-1 mice were given the drugs at equimolar dosages intraperitoneally once daily for 5 days. • 3) The animals, n=3-4 per group, were euthanized 4, 8, or 24 h post-last dose. • 4) The kidney, liver, and pancreas were removed and assessed for their polyamine content via HPLC analysis. • 5) The polyamine concentration data (mean±STD) are expressed as nmol/g wet weight of tissue. SPM, spermine; SPD, spermidine; PUT, putrescine; N.D., not determined. • 6) A one-tailed t test assuming unequal variance was performed on the tissue polyamine concentration data. A value of p<0.05 was considered significant.

[1] = kidney, 4 h post-last dose, HCl salt 20 mg/kg/d IP x 5 d
[2] = kidney, 8 h post-last dose, HCl salt 20 mg/kg/d IP x 5 d
[3] = kidney, 24 h post-last dose, HCl salt 20 mg/kg/d IP x 5 d
[4] = liver, 4 h post-last dose, HCl salt 20 mg/kg/d IP x 5 d
[5] = liver, 8 h post-last dose, HCl salt 20 mg/kg/d IP x 5 d
[6] = liver, 24 h post-last dose, HCl salt 20 mg/kg/d IP x 5 d
[7] = liver, 24 h post-last dose, HCl salt 20 mg/kg/d IP x 5 d, listed as (HO)2DEHSPM•4HCl Salt
[8] = pancreas, 4 h post-last dose, HCl salt 20 mg/kg/d IP x 5 d
[9] = pancreas, 8 h post-last dose, HCl salt 20 mg/kg/d IP x 5 d
[10] = pancreas, 24 h post-last dose, HCl salt 20 mg/kg/d IP x 5 d
[11] = kidney, 4 h post-last dose, mesylate salt 30.3 mg/kg/d IP x 5 d
[12] = kidney, 8 h post-last dose, mesylate salt 30.3 mg/kg/d IP x 5 d
[13] = kidney, 24 h post-last dose, mesylate salt 30.3 mg/kg/d IP x 5 d
[14] = liver, 4 h post-last dose, mesylate salt 30.3 mg/kg/d IP x 5 d
[15] = liver, 8 h post-last dose, mesylate salt 30.3 mg/kg/d IP x 5 d
[16] = liver, 24 h post-last dose, mesylate salt 30.3 mg/kg/d IP x 5 d
[17] = pancreas, 4 h post-last dose, mesylate salt 30.3 mg/kg/d IP x 5 d
[18] = pancreas, 8 h post-last dose, mesylate salt 30.3 mg/kg/d IP x 5 d
[19] = pancreas, 24 h post-last dose, mesylate salt 30.3 mg/kg/d IP x 5 d

CCNCCC(O)CNCCCCNCC(O)CCNCC.Cl.Cl.Cl.Cl (stereo not shown) [(HO)2DEHSPM HCl Salt]
(HO)2DEHSPM 4HCl Salt concentration [1]: 852 ± 202 nmol/g wet weight of tissue
(HO)2HSPM concentration [1]: 50 ± 19 nmol/g wet weight of tissue
PUT concentration [1]: 31 ± 27 nmol/g wet weight of tissue
SPD concentration [1]: 327 ± 86 nmol/g wet weight of tissue
SPM concentration [1]: 544 nmol/g wet weight of tissue
SPM concentration (kidney, 4 h post-last dose, HCl salt 20 mg/kg/d IP x 5 d, listed as (HO)2DEHSPM•4HCl Salt): 544 ± 14 nmol/g wet weight of tissue
(HO)2DEHSPM 4HCl Salt concentration [2]: 871 ± 85 nmol/g wet weight of tissue
(HO)2HSPM concentration [2]: 70 ± 6 nmol/g wet weight of tissue
PUT concentration [2]: 29 ± 5 nmol/g wet weight of tissue
SPD concentration [2]: 275 ± 16 nmol/g wet weight of tissue
SPM concentration [2]: 641 nmol/g wet weight of tissue
SPM concentration (kidney, 8 h post-last dose, HCl salt 20 mg/kg/d IP x 5 d, listed as (HO)2DEHSPM•4HCl Salt): 641 ± 33 nmol/g wet weight of tissue
(HO)2DEHSPM 4HCl Salt concentration [3]: 618 ± 82 nmol/g wet weight of tissue
(HO)2HSPM concentration [3]: 76 ± 7 nmol/g wet weight of tissue
PUT concentration [3]: 28 ± 6 nmol/g wet weight of tissue
SPD concentration [3]: 304 ± 30 nmol/g wet weight of tissue
SPM concentration [3]: 588 nmol/g wet weight of tissue
SPM concentration (kidney, 24 h post-last dose, HCl salt 20 mg/kg/d IP x 5 d, listed as (HO)2DEHSPM•4HCl Salt): 588 ± 5 nmol/g wet weight of tissue
(HO)2DEHSPM 4HCl Salt concentration [4]: 248 ± 17 nmol/g wet weight of tissue
(HO)2HSPM concentration [4]: 70 ± 5 nmol/g wet weight of tissue
PUT concentration [4]: 0 ± 0 nmol/g wet weight of tissue
SPD concentration [4]: 1050 ± 9 nmol/g wet weight of tissue
SPM concentration [4]: 875 nmol/g wet weight of tissue
SPM concentration (liver, 4 h post-last dose, HCl salt 20 mg/kg/d IP x 5 d, listed as (HO)2DEHSPM•4HCl Salt): 875 ± 128 nmol/g wet weight of tissue
(HO)2DEHSPM 4HCl Salt concentration [5]: 228 ± 55 nmol/g wet weight of tissue
(HO)2HSPM concentration [5]: 103 ± 14 nmol/g wet weight of tissue
PUT concentration [5]: 20 ± 17 nmol/g wet weight of tissue
SPD concentration [5]: 1175 ± 190 nmol/g wet weight of tissue
SPM concentration [5]: 1071 nmol/g wet weight of tissue
SPM concentration (liver, 8 h post-last dose, HCl salt 20 mg/kg/d IP x 5 d, listed as (HO)2DEHSPM•4HCl Salt): 1071 ± 7 nmol/g wet weight of tissue
(HO)2DEHSPM 4HCl Salt concentration [6]: 136 ±50 nmol/g wet weight of tissue
(HO)2HSPM concentration [6]: 102 ± 13 nmol/g wet weight of tissue
PUT concentration [6]: 7 ± 14 nmol/g wet weight of tissue
SPD concentration [6]: 884 ± 156 nmol/g wet weight of tissue
SPM concentration [6]: 837 nmol/g wet weight of tissue
(HO)2DEHSPM 4HCl Salt concentration [7]: 136 ± 50 nmol/g wet weight of tissue
SPM concentration [7]: 837 ± 13 nmol/g wet weight of tissue
(HO)2DEHSPM 4HCl Salt concentration [8]: 217 ± 27 nmol/g wet weight of tissue
(HO)2HSPM concentration [8]: 56 ± 11 nmol/g wet weight of tissue
PUT concentration [8]: 32 ± 3 nmol/g wet weight of tissue
SPD concentration [8]: 5868 ± 505 nmol/g wet weight of tissue
SPM concentration [8]: 1153 nmol/g wet weight of tissue and 1153 ± 159 nmol/g wet weight of tissue
(HO)2DEHSPM 4HCl Salt concentration [9]: 223 ± 54 nmol/g wet weight of tissue
(HO)2HSPM concentration [9]: 60 ± 9 nmol/g wet weight of tissue
PUT concentration [9]: 50 ± 7 nmol/g wet weight of tissue
SPD concentration [9]: 6343 ± 596 nmol/g wet weight of tissue
SPM concentration [9]: 1476 nmol/g wet weight of tissue and 1476 ± 101 nmol/g wet weight of tissue
(HO)2DEHSPM 4HCl Salt concentration [10]: 209 ± 37 nmol/g wet weight of tissue
(HO)2HSPM concentration [10]: 58 ± 14 nmol/g wet weight of tissue
PUT concentration [10]: 36 ± 5 nmol/g wet weight of tissue
SPD concentration [10]: 6386 ± 309 nmol/g wet weight of tissue
SPM concentration [10]: 1177 nmol/g wet weight of tissue and 1177 ± 161 nmol/g wet weight of tissue

CCNCCC(O)CNCCCCNCC(O)CCNCC.CS(=O)(=O)O.CS(=O)(=O)O.CS(=O)(=O)O.CS(=O)(=O)O (stereo not shown) [(HO)2DEHSPM Mesylate Salt]
(HO)2DEHSPM Mesylate concentration [11]: 541 ± 65 nmol/g wet weight of tissue
(HO)2HSPM concentration [11]: 77 ± 6 nmol/g wet weight of tissue
PUT concentration [11]: 7 ± 12 nmol/g wet weight of tissue
SPD concentration [11]: 404 ± 24 nmol/g wet weight of tissue
SPM concentration [11]: 680 nmol/g wet weight of tissue and 680 ± 15 nmol/g wet weight of tissue
(HO)2DEHSPM Mesylate concentration [12]: 533 ± 84 nmol/g wet weight of tissue
(HO)2HSPM concentration [12]: 89 ± 14 nmol/g wet weight of tissue
PUT concentration [12]: 0 ± 0 nmol/g wet weight of tissue
SPD concentration [12]: 265 ± 5 nmol/g wet weight of tissue
SPM concentration [12]: 655 nmol/g wet weight of tissue and 655 ± 41 nmol/g wet weight of tissue
(HO)2DEHSPM Mesylate concentration [13]: 360 ± 43 nmol/g wet weight of tissue
(HO)2HSPM concentration [13]: 97 ± 5 nmol/g wet weight of tissue
PUT concentration [13]: 26 ± 5 nmol/g wet weight of tissue
SPD concentration [13]: 239 ± 9 nmol/g wet weight of tissue
SPM concentration [13]: 601 nmol/g wet weight of tissue and 601 ± 29 nmol/g wet weight of tissue
(HO)2DEHSPM Mesylate concentration [14]: 168 ± 32 nmol/g wet weight of tissue
(HO)2HSPM concentration [14]: 79 ± 7 nmol/g wet weight of tissue
PUT concentration [14]: 0 ± 0 nmol/g wet weight of tissue
SPD concentration [14]: 1044 ± 177 nmol/g wet weight of tissue
SPM concentration [14]: 908 nmol/g wet weight of tissue and 908 ± 55 nmol/g wet weight of tissue
(HO)2DEHSPM Mesylate concentration [15]: 135 ± 3 nmol/g wet weight of tissue
(HO)2HSPM concentration [15]: 116 ± 15 nmol/g wet weight of tissue
PUT concentration [15]: 0 ± 0 nmol/g wet weight of tissue
SPD concentration [15]: 1108 ± 146 nmol/g wet weight of tissue
SPM concentration [15]: 987 nmol/g wet weight of tissue and 987 ± 49 nmol/g wet weight of tissue
(HO)2DEHSPM Mesylate concentration [16]: 73 ± 11 nmol/g wet weight of tissue
(HO)2HSPM concentration [16]: 88 ± 5 nmol/g wet weight of tissue
PUT concentration [16]: 0 ± 0 nmol/g wet weight of tissue
SPD concentration [16]: 910 ±10 nmol/g wet weight of tissue
SPM concentration [16]: 807 nmol/g wet weight of tissue and 807 ± 138 nmol/g wet weight of tissue
(HO)2DEHSPM Mesylate concentration [17]: 131 ± 27 nmol/g wet weight of tissue
(HO)2HSPM concentration [17]: 50 ± 6 nmol/g wet weight of tissue
PUT concentration [17]: 36 ± 10 nmol/g wet weight of tissue
SPD concentration [17]: 5717 ± 426 nmol/g wet weight of tissue
SPM concentration [17]: 1108 nmol/g wet weight of tissue and 1108 ± 15 nmol/g wet weight of tissue
(HO)2DEHSPM Mesylate concentration [18]: 153 ± 11 nmol/g wet weight of tissue
(HO)2HSPM concentration [18]: 70 ± 2 nmol/g wet weight of tissue
PUT concentration [18]: 57 ± 15 nmol/g wet weight of tissue
SPD concentration [18]: 6460 ± 280 nmol/g wet weight of tissue
SPM concentration [18]: 1333 nmol/g wet weight of tissue and 1333 ± 103 nmol/g wet weight of tissue
(HO)2DEHSPM Mesylate concentration [19]: 134 ± 14 nmol/g wet weight of tissue
(HO)2HSPM concentration [19]: 75 ± 4 nmol/g wet weight of tissue
PUT concentration [19]: 31 ± 3 nmol/g wet weight of tissue
SPD concentration [19]: 6147 ± 223 nmol/g wet weight of tissue
SPM concentration [19]: 1273 ± 210 nmol/g wet weight of tissue
